In paper PMC3525726 (Cancer research, 2012):

What was measured:
Format in all cases: biochemical
[1] = target: T1, ABCC10 (MRP7) (Homo sapiens, UniProt Q5T3U5); assay: Pi release ATPase stimulation assay; conditions: 5 mM ATP, Mg2+, pH 7.5, 37 °C; crude membranes
T1 sequence (Q5T3U5 1-1492): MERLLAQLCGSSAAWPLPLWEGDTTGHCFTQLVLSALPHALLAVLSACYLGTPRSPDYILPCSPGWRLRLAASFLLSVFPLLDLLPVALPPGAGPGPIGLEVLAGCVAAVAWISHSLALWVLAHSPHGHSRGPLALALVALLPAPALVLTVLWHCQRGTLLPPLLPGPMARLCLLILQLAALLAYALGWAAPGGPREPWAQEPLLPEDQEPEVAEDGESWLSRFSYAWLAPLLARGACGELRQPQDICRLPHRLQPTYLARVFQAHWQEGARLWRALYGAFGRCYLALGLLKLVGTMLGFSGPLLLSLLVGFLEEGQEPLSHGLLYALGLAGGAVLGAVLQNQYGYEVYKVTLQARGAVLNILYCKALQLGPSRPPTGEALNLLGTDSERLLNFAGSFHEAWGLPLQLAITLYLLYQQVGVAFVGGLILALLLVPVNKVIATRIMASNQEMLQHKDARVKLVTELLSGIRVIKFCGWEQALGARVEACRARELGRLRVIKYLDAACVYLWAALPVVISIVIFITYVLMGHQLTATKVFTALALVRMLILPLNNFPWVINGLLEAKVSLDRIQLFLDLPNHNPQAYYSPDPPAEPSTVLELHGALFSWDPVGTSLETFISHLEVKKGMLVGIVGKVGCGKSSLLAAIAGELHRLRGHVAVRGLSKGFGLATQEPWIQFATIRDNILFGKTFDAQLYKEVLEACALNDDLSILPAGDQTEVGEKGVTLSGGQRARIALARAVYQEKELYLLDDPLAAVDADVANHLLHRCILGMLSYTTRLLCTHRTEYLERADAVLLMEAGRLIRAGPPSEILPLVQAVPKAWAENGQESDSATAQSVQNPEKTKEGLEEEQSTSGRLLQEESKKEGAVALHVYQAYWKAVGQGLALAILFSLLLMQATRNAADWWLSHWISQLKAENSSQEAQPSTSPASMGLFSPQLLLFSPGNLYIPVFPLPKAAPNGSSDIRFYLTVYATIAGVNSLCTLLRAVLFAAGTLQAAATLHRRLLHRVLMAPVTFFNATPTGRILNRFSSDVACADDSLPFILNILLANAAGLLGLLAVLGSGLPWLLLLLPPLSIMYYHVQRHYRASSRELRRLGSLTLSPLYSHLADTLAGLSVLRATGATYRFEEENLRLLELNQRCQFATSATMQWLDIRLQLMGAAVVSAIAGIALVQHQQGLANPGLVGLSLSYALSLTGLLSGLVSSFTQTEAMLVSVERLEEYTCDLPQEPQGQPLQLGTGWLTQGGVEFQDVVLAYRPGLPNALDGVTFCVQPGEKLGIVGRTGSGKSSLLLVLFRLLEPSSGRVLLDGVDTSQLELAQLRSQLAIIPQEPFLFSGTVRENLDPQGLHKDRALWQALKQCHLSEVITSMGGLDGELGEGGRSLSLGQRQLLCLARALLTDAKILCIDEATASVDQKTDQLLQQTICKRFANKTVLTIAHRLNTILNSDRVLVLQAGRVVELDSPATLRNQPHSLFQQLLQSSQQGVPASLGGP

[2] = target: T1, ABCC10 (MRP7); assay: Pi release ATPase stimulation assay; conditions: 5 mM ATP, Mg2+, pH 7.5, 37 °C; crude membranes; remark: listed apart in the source
[3] = target: T1, ABCC10 (MRP7); assay: Pi release ATPase stimulation assay; conditions: 5 mM ATP, Mg2+, pH 7.5, 37 °C; crude membranes; remark: listed apart in the source
[4] = target: T1, ABCC10 (MRP7); assay: Pi release ATPase inhibition assay; conditions: read-out: % inhibition at 0.625 μM
[5] = target: T1, ABCC10 (MRP7); assay: Pi release ATPase inhibition assay; conditions: 5 mM ATP, Mg2+, pH 7.5, 37 °C; crude membranes

Nc1ccn([C@@H]2O[C@H](CO)[C@@H](O)[C@@H]2O)c(=O)n1 [Ara-C]
% stimulation of ATPase activity at 0.625 μM [1]: 31.8%

C[C@]12CC[C@@H]3c4ccc(O)cc4CC[C@H]3[C@@H]1CC[C@@H]2O[C@@H]1O[C@H](C(=O)O)[C@@H](O)[C@H](O)[C@H]1O [E217βG]
% stimulation of ATPase activity [2]: 30%

CC(=O)O[C@@]12CO[C@@H]1C[C@H](O)[C@@]1(C)C(=O)[C@H](O)C3=C(C)[C@@H](OC(=O)[C@H](O)[C@@H](NC(=O)OC(C)(C)C)c4ccccc4)C[C@@](O)([C@@H](OC(=O)c4ccccc4)[C@H]21)C3(C)C [docetaxel]
% stimulation of ATPase activity at 5 μM [3]: 24.38%

C#Cc1cccc(Nc2ncnc3cc(OCCOC)c(OCCOC)cc23)c1 [erlotinib]
inhibition at 0.625 µM [4]: 47%

Cc1ccc(NC(=O)c2ccc(CN3CCN(C)CC3)cc2)cc1Nc1nccc(-c2cccnc2)n1 [imatinib]
% inhibition at 5 μM [5]: cepharanthine, sorafenib, imatinib, nilotinib, erlotinib and lapatinib were effective inhibitors of ABCC10 ATPase activity

Cc1cn(-c2cc(NC(=O)c3ccc(C)c(Nc4nccc(-c5cccnc5)n4)c3)cc(C(F)(F)F)c2)cn1 [nilotinib]
inhibition at 0.625 µM [4]: 41.4%

CC(=O)O[C@H]1C(=O)[C@@]2(C)[C@H]([C@H](OC(=O)c3ccccc3)[C@]3(O)C[C@H](OC(=O)[C@H](O)[C@@H](NC(=O)c4ccccc4)c4ccccc4)C(C)=C1C3(C)C)[C@]1(OC(C)=O)CO[C@@H]1C[C@@H]2O [paclitaxel]
% stimulation of ATPase activity at 5 μM [3]: 15%

CNC(=O)c1cc(Oc2ccc(NC(=O)Nc3ccc(Cl)c(C(F)(F)F)c3)cc2)ccn1 [sorafenib]
% inhibition at 5 μM [5]: cepharanthine, sorafenib, imatinib, nilotinib, erlotinib and lapatinib were effective inhibitors of ABCC10 ATPase activity
